BindingDB's records for doi:10.1021/jm025550h (Abbott Laboratories, 2002)
pEC50: −log10 of the molar value.

Legend:
[1] = Effective concentration in vitro against rabbit urethra Alpha-1 adrenergic receptor
[2] = Effective concentration in vitro against rabbit urethra Alpha-1A adrenergic receptor

Compound	pEC50 [1]	pEC50 [2]
COc1ccc(OC)c(C(O)CN)c1 (stereo not drawn)	5.15	–
CC(N)C(O)c1ccccc1 [(1R, 2S)-2-Amino-1-phenyl-propan-1-ol]	3.64	–
CCS(=O)(=O)Nc1cccc(Cc2cnc[nH]2)c1 [ABT-866]	–	6.22
